Experimental data from US10213482B2, “Methods of treating chronic inflammatory diseases” (Centre National de la Recherche Scientifique, priority 2014, dated 2019).
Square brackets hold non-standard residues; d marks the D form. Ends that are not written are not given here. Peptide text beside a SMILES is read from it. Met(O) = CS(=O)CC[C@H](N)C(=O)O; pS = N[C@@H](COP(=O)(O)O)C(=O)O

What was measured:
[1] = Stability of the peptides at 37° C. in 10% mannitol (HPLC peak area); type: physicochemical
Protocol: The stability of the peptide SEQ ID NO: 1 in which the serine at position 10 is phosphorylated and the methionine at position 4 is oxydized (P140(MO)), and the peptide SEQ ID NO: 1 in which the serine at position 10 is phosphorylated (P140) was measured at 37° C., in a solution of 10% (v/v) mannitol. For each peptide, 3 concentrations have been tested: 200, 100 and 50 μg/mL.
At the indicated time, the integrity of P140 and P140(MO) peptides was measured in saline by high-performance liquid chromatography from the area of the peak corresponding to the intact peptide.
Stability is measured by using the HPLC peak surface.

Balb/c mice = assay: 15-day ovalbumin-induced airway hypereosinophilia model, BAL cell counts; type: in vivo, mouse; settings: i.n. or i.v., control mice challenged with saline; no pro-inflammatory effect
Protocol: The anti-inflammatory effect of the P140 phosphopeptide was evaluated when administered locally (intranasally) or systemically (intravenously) in a 15-day model of hypereosinophilic airway inflammation in mice.
The P140 phosphopeptide was solubilized in sterile water (Braun) and 10× concentrate sterile saline was added to adjust osmolarity to 300 mosm. Osmolarity was controlled with a micro osmometer (Loser, type 15) and validated (302 mosm).
The P140 phosphopeptide was used in vivo at the dose of 4 mg/kg by intranasal (i.n.) and intravenous (i.v.) routes. Control animals received equivalent volumes (1 ml/kg for i.n. and 2 ml/kg for i.v.) of saline (Table 6).
Nine-week-old male Balb/c mice were sensitized by intraperitoneal (i.p.) injections of a mixture containing 50 μg OVA (Sigma-Aldrich) and 2 mg alum (Sigma-Aldrich) in 0.1 ml saline. Mice were challenged by i.n. administration of 25 μl of OVA on day 5, then 25 μl of OVA and/or saline on day 12, 13 and 14. […]
BAL was performed twenty-four hours after LPS challenge as described (Daubeuf, F. and Frossard, N. 2012. Performing Bronchoalveolar Lavage in the Mouse. Curr Protoc Mouse Biol 2:167-175). […] The cell pellet was suspended in 500 μl of 0.9% NaCl and used for total cell counts evaluated on a Muse® Cell Analyser. Differential cell counts were assessed by flow cytometry (LSRII® cytometer, BD Bioscience). […]

Recombinant bovine HSC70 = target: T1, Recombinant bovine HSC70 (Bos taurus, UniProt P19120); assay: BIAcore binding of P140 peptides to HSC70
T1 construct: purchased Stressgen
T1 sequence (P19120 whole entry): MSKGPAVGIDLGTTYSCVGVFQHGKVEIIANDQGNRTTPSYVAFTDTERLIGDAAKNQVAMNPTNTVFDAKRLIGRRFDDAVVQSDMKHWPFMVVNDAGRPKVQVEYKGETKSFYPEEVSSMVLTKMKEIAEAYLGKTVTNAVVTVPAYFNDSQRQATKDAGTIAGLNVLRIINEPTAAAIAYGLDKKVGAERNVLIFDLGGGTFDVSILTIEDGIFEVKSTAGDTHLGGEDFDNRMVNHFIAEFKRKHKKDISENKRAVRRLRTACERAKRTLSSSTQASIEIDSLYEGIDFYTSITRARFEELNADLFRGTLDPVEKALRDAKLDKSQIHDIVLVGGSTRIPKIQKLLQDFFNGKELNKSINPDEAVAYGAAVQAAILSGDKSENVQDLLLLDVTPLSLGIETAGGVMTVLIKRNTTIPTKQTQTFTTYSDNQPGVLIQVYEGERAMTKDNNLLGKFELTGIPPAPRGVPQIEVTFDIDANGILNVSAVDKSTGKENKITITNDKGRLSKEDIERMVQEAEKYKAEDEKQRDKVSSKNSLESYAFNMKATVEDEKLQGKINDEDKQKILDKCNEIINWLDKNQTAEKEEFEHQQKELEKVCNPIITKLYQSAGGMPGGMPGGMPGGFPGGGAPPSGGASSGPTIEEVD
Protocol: BIAcore 3000 system (Biacore AB) was used to evaluate the binding of P140 peptides to HSC70 protein (Page et al., 2009, and 2011). Sensor chip CMS, surfactant P20, amine coupling kit containing N-hydroxysuccinimide (NHS) and N-ethyl-N′-dimethylaminopropyl carbodiimide (EDC), 2-(2-pyridinyldithio)ethaneamine (PDEA) and ethanolamine were from Biacore AB. Biosensor assays were performed with HBS-EP buffer as running buffer (10 mM HEPES, 150 mM NaCl, 3 mM EDTA, 0.005% surfactant P20, pH 7.4). The compounds were diluted in the running buffer. The sensor chip surface was regenerated after each experiment by injecting 10 μL of 10 mM HCl. Recombinant bovine HSC70 (Stressgen) was immobilized on flow cells of a CMS sensor chip through its thiol groups using 35 μL PDEA in 50 mM borate buffer, pH 8.3 on the NHS/EDC-activated matrix. Then, 35 μL of HSC70 (100 μg/mL in formate buffer, pH 4.3) were injected until a response of 13,000 response units (RU) corresponding to 13 ng/mm^2 of HSC70 was immobilized. Twenty μL of a 50 mM cysteine/1 M NaCl solution was used to saturate unoccupied sites on the chip. The direct binding measurement of P140 peptides to HSC70 was carried out at 25° C. with a constant flow rate of 20 μL/min. […] The kinetic parameters were calculated using the BIAeval 3.1 software on a personal computer. […]

MRL/lpr mice [2] = assay: Proteinuria analysis in MRL/lpr mice (Albustix); type: in vivo, mouse; settings: compared to the untreated mice
Protocol: Proteinuria of the above mice was measured in fresh urine using Albustix (Bayer Diagnostics) and was semi-quantitatively estimated according to a […] recommended by the manufacturer (no proteinuria=0; traces=1; 1+=2; 2+=3; 3+=4; 4+=5).
Statistical tests were performed using GraphPad Prism version 5.0. The two-way ANOVA test was used to analyze statistical significance of proteinuria differences between control and peptide-treated groups of mice. Survival of control and P140 analogue-treated female MRL/lpr mice was analyzed by the Kaplan-Meier method, and the significance of differences was determined by the log-rank test. For the other variables, statistical significance was assessed using the Student's t-test. p values less than 0.05 were considered significant.

MRL/lpr mice [3] = assay: Cellularity analysis of peripheral blood in MRL/lpr mice; type: in vivo, mouse; settings: 100 μg/100 μL, 5 days after unique injection
Protocol: MRL/lpr mice were injected with 100 μg/100 μL of P140 or P140(MO) and cellularity (preipheral blood) was studied 5 days after this unique injection. The count includes all the leucocytes. In view of the low number of tested mice, a non parametric statistical test has been realised Mann-Whitney).

mice = settings: Monneaux et al., 2003; cited from earlier work

CC[C@H](C)[C@H](NC(=O)[C@H](Cc1ccccc1)NC(=O)[C@H](C)NC(=O)[C@H](Cc1ccc(O)cc1)NC(=O)CNC(=O)[C@H](CCCNC(=N)N)NC(=O)[C@@H]1CCCN1C(=O)[C@H](CCCCN)NC(=O)CNC(=O)[C@H](COP(=O)(O)O)NC(=O)[C@H](CCCNC(=N)N)NC(=O)[C@H](CCCCN)NC(=O)[C@H](CO)NC(=O)[C@H](Cc1ccc(O)cc1)NC(=O)[C@@H](NC(=O)[C@H](CCSC)NC(=O)[C@H](Cc1c[nH]cn1)NC(=O)[C@@H](NC(=O)[C@@H](N)CCCNC(=N)N)[C@@H](C)CC)C(C)C)C(=O)N[C@@H](CCC(=O)O)C(=O)N[C@@H](Cc1ccc(O)cc1)C(=O)O [Compound P140] (H-RIHMVYSKR[pS]GKPRGYAFIEY-OH)
Stability (%) Linear equation: coefficient of x (days) ([1]; 50 μg/mL): y = −0.099x + | Stability (%) Linear equation: constant term ([1]; 50 μg/mL): 98.299 | Stability (%) Linear equation: coefficient of x (days) ([1]; 100 μg/mL): y = −0.0612x + | Stability (%) Linear equation: constant term ([1]; 100 μg/mL): 99.25 | Stability (%) Linear equation: coefficient of x (days) ([1]; 200 μg/mL): y = −0.0238x + | Stability (%) Linear equation: constant term ([1]; 200 μg/mL): 99.535 | Number of cells recovered in BAL fluid as compared to vehicle (Balb/c mice): little effect per se

CC[C@H](C)[C@H](NC(=O)[C@H](Cc1ccccc1)NC(=O)[C@H](C)NC(=O)[C@H](Cc1ccc(O)cc1)NC(=O)CNC(=O)[C@H](CCCNC(=N)N)NC(=O)[C@@H]1CCCN1C(=O)[C@H](CCCCN)NC(=O)CNC(=O)[C@H](COP(=O)(O)O)NC(=O)[C@H](CCCNC(=N)N)NC(=O)[C@H](CCCCN)NC(=O)[C@H](CO)NC(=O)[C@H](Cc1ccc(O)cc1)NC(=O)[C@@H](NC(=O)[C@H](CC[S+](C)[O-])NC(=O)[C@H](Cc1c[nH]cn1)NC(=O)[C@@H](NC(=O)[C@@H](N)CCCNC(=N)N)[C@@H](C)CC)C(C)C)C(=O)N[C@@H](CCC(=O)O)C(=O)N[C@@H](Cc1ccc(O)cc1)C(=O)O (stereo partly shown) [P140(MO), RIHM(O)VYSKRS(PO3H2)GKPRGYAFIEY] (H-RIH[Met(O)]VYSKR[pS]GKPRGYAFIEY-OH)
Affinity for HSC70 protein, comparison of oxidized and non-oxidized peptide (Recombinant bovine HSC70): not statistically different | Proteinuria score over time (MRL/lpr mice [2]): less important and appears lately | Peripheral hypercellularity (leucocytes in blood) (MRL/lpr mice [3]): decrease peripheral hypercellularity | Stability (%) Linear equation: coefficient of x (days) ([1]; 50 μg/mL): y = −0.0064x + | Stability (%) Linear equation: constant term ([1]; 50 μg/mL): 99.677 | Stability (%) Linear equation: coefficient of x (days) ([1]; 100 μg/mL): y = −0.0064x + | Stability (%) Linear equation: constant term ([1]; 100 μg/mL): 100.11 | Stability (%) Linear equation: constant term ([1]; 200 μg/mL): y = 100

non-phosphorylated peptide: non-phosphorylated form of P140, not protective against disease development in mice (RIHMVYSKRSGKPRGYAFIEY; not fully specified; UniProt P08621 131-151, looked up, fragment)
Protection against disease development (mice): not protective
